From patent US9796700B2 (Celgene CAR LLC, priority 2013, dated 2017)

target: Erk1 (Homo sapiens (Human), UniProt P27361); assay: Protein Mass Modification Assay (intact protein MALDI); assay type: binding
Outline: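 Percent covalent modification comes from the intact-protein MALDI centroid mass shift, treated versus control, divided by compound MW. Before analysis, human Erk1 was exposed to compound at 10-fold excess over protein for 60 min at room temperature.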

Erk1, sequence (P27361 whole entry, looked up): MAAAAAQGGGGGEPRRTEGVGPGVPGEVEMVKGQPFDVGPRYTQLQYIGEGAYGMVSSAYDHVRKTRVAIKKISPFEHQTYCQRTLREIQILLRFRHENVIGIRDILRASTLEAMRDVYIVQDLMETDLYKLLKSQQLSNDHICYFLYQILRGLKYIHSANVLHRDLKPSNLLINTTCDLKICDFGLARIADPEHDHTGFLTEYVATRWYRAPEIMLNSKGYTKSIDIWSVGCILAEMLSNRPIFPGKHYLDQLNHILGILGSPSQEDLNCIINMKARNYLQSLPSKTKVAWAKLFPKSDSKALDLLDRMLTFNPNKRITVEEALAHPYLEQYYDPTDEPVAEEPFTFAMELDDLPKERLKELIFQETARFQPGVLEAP

Row | Structure (SMILES) | ERK1 Mass Mod (%)
1 | C=CC(=O)Nc1ccccc1Nc1nc(NC2CCN(C(C)=O)CC2)ncc1Cl [Compound I-116, N-(2-((2-((1-acetylpiperidin-4-yl)amino)-5-chloropyrimidin-4-yl)amino)phenyl) acrylamide] | E (provided a mass modification of ≧70%)
2 | C=CC(=O)Nc1ccccc1Nc1nc(Nc2cc(C(=O)O)ccc2C)ncc1C(F)(F)F [Compound I-78, 3-((4-((2-Acrylamidophenyl)amino)-5-(trifluoromethyl)pyrimidin-2-yl)amino)-4-methylbenzoic acid] | E (provided a mass modification of ≧70%)
3 | C=CC(=O)Nc1cc(F)ccc1Nc1nc(Nc2ccc(F)cc2OC)ncc1Cl [Compound I-213, N-(2-((5-chloro-2-((4-fluoro-2-methoxyphenyl)amino)pyrimidin-4-yl)amino)-5-fluorophenyl)acrylamide] | E (provided a mass modification of ≧70%)
4 | C=CC(=O)N[C@@H]1CCCC[C@H]1Nc1nc(N[C@H]2CCCN(C(=O)CO)C2)ncc1C(F)(F)F [Compound I-32, N-((1R,2R)-2-((2-(((S)-1-(2-hydroxyacetyl)piperidin-3-yl)amino)-5-(trifluoromethyl)pyrimidin-4-yl)amino)cyclohexyl)acrylamide] | F (key: E: provided a mass modification of ≧70%; F: provided a mass modification of 31-69%; G: proived a mass modification ≦30%)
5 | C=CC(=O)Nc1ccccc1Nc1nc(NC(C)(C)C)ncc1C(F)(F)F [Compound I-82, N-(2-((2-(tert-Butylamino)-5-(trifluoromethyl)pyrimidin-4-yl)amino)phenyl)acrylamide] | E (provided a mass modification of ≧70%)
6 | C=CC(=O)Nc1ccccc1Nc1nc(NC2CCN(C(C)=O)CC2)ncc1C(F)(F)F [Compound I-12, N-(2-((2-((1-acetylpiperidin-4-yl)amino)-5-(trifluoromethyl)pyrimidin-4-yl)amino)phenyl)acrylamide] | E (provided a mass modification of ≧70%)
7 | C=CC(=O)Nc1cc(OC)ccc1Nc1nc(Nc2ccc(N(CC)C(C)=O)cc2C(F)(F)F)ncc1Cl [Compound I-176, N-(2-((5-chloro-2-((4-(N-ethylacetamido)-2-(trifluoromethyl)phenyl)amino)pyrimidin-4-yl)amino)-5-methoxyphenyl)acrylamide] | E (provided a mass modification of ≧70%)
8 | C=CC(=O)Nc1ccccc1Oc1nc(NC(C)(C)C)ncc1C(N)=O [Compound I-267, 4-(2-acrylamidophenoxy)-2-(tert-butylamino)pyrimidine-5-carboxamide] | E (provided a mass modification of ≧70%)
9 | C=CC(=O)Nc1ccccc1Nc1nc(Nc2ccc3c(c2OC)CCCC(=O)N3CCCN2CCOCC2)ncc1Cl [Compound I-146, N-(2-((5-chloro-2-((6-methoxy-1-(3-morpholinopropyl)-2-oxo-2,3,4,5-tetrahydro-1H-benzo[b]azepin-7-yl)amino)pyrimidin-4-yl)amino)phenyl)acrylamide] | E (provided a mass modification of ≧70%)
10 | C=CC(=O)Nc1ccccc1Nc1nc(Nc2ccc(N3CCOCC3)cc2OC)ncc1/C(C)=N/OC [Compound I-274, (E)-N-(2-((2-((2-methoxy-4-morpholinophenyl)amino)-5-(1-(methoxyimino)ethyl)pyrimidin-4-yl)amino)phenyl)acrylamide] | G (proived a mass modification ≦30%)
11 | C=CC(=O)Nc1cc(F)ccc1Nc1nc(N[C@@H]2CCC[C@H](C(N)=O)C2)ncc1C(F)(F)F (racemic) [Compound I-5, Rac-cis-3-((4-((2-acrylamido-4-fluorophenyl)amino)-5-(trifluoromethyl)pyrimidin-2-yl)amino)cyclohexanecarboxamide] | E (provided a mass modification of ≧70%)
12 | C=CC(=O)Nc1cc(C)ccc1Nc1nc(Nc2cc(OC)nc(N(C)CCOC)c2)ncc1C(F)(F)F [Compound I-336, N-(2-((2-((2-methoxy-6-((2-methoxyethyl)(methyl)amino)pyridin-4-yl)amino)-5-(trifluoromethyl)pyrimidin-4-yl)amino)-5-methylphenyl)acrylamide] | E (provided a mass modification of ≧70%)
13 | C=CC(=O)Nc1ccccc1Nc1nc(Nc2cc(C(=O)NCCO)c(F)cc2C)ncc1Cl [Compound I-232, 5-((4-((2-acrylamidophenyl)amino)-5-chloropyrimidin-2-yl)amino)-2-fluoro-N-(2-hydroxyethyl)-4-methylbenzamide] | E (provided a mass modification of ≧70%)
14 | C=CC(=O)Nc1ccccc1Nc1nc(Nc2cc(C(=O)NOCCO)ccc2C)ncc1C(F)(F)F [Compound I-73, 3-((4-((2-Acrylamidophenyl)amino)-5-(trifluoromethyl)pyrimidin-2-yl)amino)-N-(2-hydroxyethoxy)-4-methylbenzamide] | E (key: E: provided a mass modification of ≧70%; F: provided a mass modification of 31-69%; G: proived a mass modification ≦30%)
15 | C/C=C/C(=O)Nc1cc(F)ccc1Nc1nc(N[C@@H]2CCC[C@H](C(N)=O)C2)ncc1Cl (racemic) [Compound I-113, Rac-cis-(E)-3-((4-((2-(but-2-enamido)-4-fluorophenyl)amino)-5-chloropyrimidin-2-yl)amino)cyclohexanecarboxamide] | F (key: E: provided a mass modification of ≧70%; F: provided a mass modification of 31-69%; G: proived a mass modification ≦30%)
16 | C=CC(=O)Nc1cc(OC)ccc1Nc1nc(Nc2ccc(N(CC)C(C)=O)cc2C#N)ncc1Cl [Compound I-164, N-(2-((5-chloro-2-((2-cyano-4-(N-ethylacetamido)phenyl)amino)pyrimidin-4-yl)amino)-5-methoxyphenyl)acrylamide] | E (provided a mass modification of ≧70%)
17 | C=CC(=O)Nc1cc(C)ccc1Nc1nc(Nc2cc(C(C)=O)ccc2C)ncc1Cl [Compound I-239, N-(2-((2-((5-acetyl-2-methylphenyl)amino)-5-chloropyrimidin-4-yl)amino)-5-methylphenyl)acrylamide] | E (key: E: provided a mass modification of ≧70%; F: provided a mass modification of 31-69%; G: proived a mass modification ≦30%)
18 | C=CC(=O)Nc1cc(C)ccc1Nc1nc(Nc2cc(OC)nc(N(C)C3CC3)c2)ncc1C(F)(F)F [Compound I-342, N-(2-((2-((2-(cyclopropyl(methyl)amino)-6-methoxypyridin-4-yl)amino)-5-(trifluoromethyl)pyrimidin-4-yl)amino)-5-methylphenyl)acrylamide] | E (provided a mass modification of ≧70%)
19 | COc1cc(N2CCOCC2)ccc1Nc1ncc(C(C)=O)c(Nc2ccccc2N)n1 [Compound I-313, 1-(4-((2-aminophenyl)amino)-2-((2-methoxy-4-morpholinophenyl)amino)pyrimidin-5-yl)ethanone] | G (proived a mass modification ≦30%)
20 | C=CC(=O)Nc1cc(C)ccc1Nc1nc(Nc2ccnc(F)c2)ncc1C(F)(F)F [Compound I-288, N-(2-((2-((2-Fluoropyridin-4-yl)amino)-5-(trifluoromethyl)pyrimidin-4-yl)amino)-5-methylphenyl)acrylamide] | E (provided a mass modification of ≧70%)
21 | C=C(C)S(=O)(=O)Nc1ccccc1Nc1nc(Nc2cc(C(C)=O)ccc2C)ncc1C(F)(F)F [Compound I-97, N-(2-((2-((5-acetyl-2-methylphenyl)amino)-5-(trifluoromethyl)pyrimidin-4-yl)amino)phenyl)prop-1-ene-2-sulfonamide] | G (proived a mass modification ≦30%)
22 | C=CC(=O)Nc1ccccc1Nc1nc(Nc2cc(C(N)=O)ccn2)ncc1C(F)(F)F [Compound I-83, 2-((4-((2-Acrylamidophenyl)amino)-5-(trifluoromethyl)pyrimidin-2-yl)amino)isonicotinamide] | E (provided a mass modification of ≧70%)
23 | C=CC(=O)Nc1ccccc1Nc1nc(N[C@@H]2CCCN(C(C)=O)C2)ncc1Cl [Compound I-128, (R)—N-(2-((2-((1-acetylpiperidin-3-yl)amino)-5-chloropyrimidin-4-yl)amino)phenyl) acrylamide] | E (provided a mass modification of ≧70%)
24 | C=CC(=O)Nc1ccccc1Nc1nc(NC2CCN(S(C)(=O)=O)CC2)ncc1Cl [Compound I-117, N-(2-((5-chloro-2-((1-(methylsulfonyl)piperidin-4-yl)amino)pyrimidin-4-yl)amino)phenyl)acrylamide] | E (provided a mass modification of ≧70%)
25 | C=CC(=O)N(C)c1ccccc1Nc1nc(Nc2cc(C(N)=O)ccc2C#N)ncc1Cl [Compound I-196, 3-((5-chloro-4-((2-(N-methylacrylamido)phenyl)amino)pyrimidin-2-yl)amino)-4-cyanobenzamide] | E (provided a mass modification of ≧70%)
26 | CC(=O)N1CCC[C@H](Nc2ncc(C(F)(F)F)c(Nc3ccccc3NC(=O)CCCl)n2)C1 [Compound I-21, (S)—N-(2-((2-((1-Acetylpiperidin-3-yl)amino)-5-(trifluoromethyl)pyrimidin-4-yl)amino)phenyl)-3-chloropropanamide] | F (provided a mass modification of 31-69%)
27 | C=CC(=O)Nc1ccccc1Nc1nc(Nc2ccc(NC(=O)CCCC(=O)NCCCOCCOCCOCCCNC(=O)CCCC[C@H]3SC[C@H]4NC(=O)N[C@H]43)cc2OC)ncc1Cl [Compound I-301, N^1-(4-((4-((2-acrylamidophenyl)amino)-5-chloropyrimidin-2-yl)amino)-3-methoxyphenyl)-N^5-(15-oxo-19-((3aR,4R,6aS)-2-oxohexahydro-1H-thieno[3,4-d]imidazol-4-yl)-4,7,10-trioxa-14-azanonadecyl)glutaramide] | E (provided a mass modification of ≧70%)
28 | C=CC(=O)Nc1cc(OC)ccc1Nc1nc(Nc2ccc(N3CCC[C@@H]3C(N)=O)cc2C#N)ncc1Cl [Compound I-180, (R)-1-(4-((4-((2-acrylamido-4-methoxyphenyl)amino)-5-chloropyrimidin-2-yl)amino)-3-cyanophenyl)pyrrolidine-2-carboxamide] | E (provided a mass modification of ≧70%)
